These results are taken from ChEMBL document CHEMBL1146052, “Inhibitors of epidermal growth factor receptor tyrosine kinase: Novel C-5 substituted anilinoquinazolines designed to target the ribose pocket” (Bioorg Med Chem Lett, 2006).

Series [1] in a line: Plasma clearance in rat at 5 mg/kg, po and 2 mg/kg, iv. Format: ADME, organism-based.
Series [2] in a line: Plasma clearance in mouse at 5 mg/kg, po and 2 mg/kg, iv. Format: ADME, organism-based.
Series [3] has as its system LoVo. The series is described as follows: Inhibition of tumor volume in human LoVo cell xenografted in mice at 100 mg/kg, po. As to conditions: Mus musculus, read-out: Inhibition.
Series [4] can be described thus: Bioavailability in rat at 5 mg/kg, po and 2 mg/kg, iv. The format is ADME, organism-based. To be noted: in vivo.
A short description of series [5]: Percent of unbound ligand in rat plasma at 5 mg/kg, po and 2 mg/kg, iv. The format is ADME, organism-based.
Series [6] can be described thus: Bioavailability in mouse at 5 mg/kg, po and 2 mg/kg, iv. The format is ADME, organism-based. As to conditions: in vivo.
Series [7] in a line: Half life in rat at 5 mg/kg, po and 2 mg/kg, iv. To be noted: in vivo. Format: ADME, organism-based.
For series [8], the target named is Epidermal growth factor receptor (Homo sapiens, UniProt P00533). In words: Inhibitory activity against EGFR.
Series [9] can be described thus: Half life in mouse at 5 mg/kg, po and 2 mg/kg, iv. Format: ADME, organism-based. As to conditions: in vivo.
A short description of series [10]: Percent of unbound ligand in mouse plasma at 5 mg/kg, po and 2 mg/kg, iv. The format is ADME, organism-based.
Series [11] is described as follows: Volume of distribution in mouse at 5 mg/kg, po and 2 mg/kg, iv. The format is ADME, organism-based. As to conditions: in vivo, read-out: Vdss.
Series [12] is described as follows: Volume of distribution in rat at 5 mg/kg, po and 2 mg/kg, iv. To be noted: in vivo, read-out: Vdss. The format is ADME, organism-based.

A value given as a limit tells only on which side of the number the result lay.

Chain of Epidermal growth factor receptor (P00533 whole entry): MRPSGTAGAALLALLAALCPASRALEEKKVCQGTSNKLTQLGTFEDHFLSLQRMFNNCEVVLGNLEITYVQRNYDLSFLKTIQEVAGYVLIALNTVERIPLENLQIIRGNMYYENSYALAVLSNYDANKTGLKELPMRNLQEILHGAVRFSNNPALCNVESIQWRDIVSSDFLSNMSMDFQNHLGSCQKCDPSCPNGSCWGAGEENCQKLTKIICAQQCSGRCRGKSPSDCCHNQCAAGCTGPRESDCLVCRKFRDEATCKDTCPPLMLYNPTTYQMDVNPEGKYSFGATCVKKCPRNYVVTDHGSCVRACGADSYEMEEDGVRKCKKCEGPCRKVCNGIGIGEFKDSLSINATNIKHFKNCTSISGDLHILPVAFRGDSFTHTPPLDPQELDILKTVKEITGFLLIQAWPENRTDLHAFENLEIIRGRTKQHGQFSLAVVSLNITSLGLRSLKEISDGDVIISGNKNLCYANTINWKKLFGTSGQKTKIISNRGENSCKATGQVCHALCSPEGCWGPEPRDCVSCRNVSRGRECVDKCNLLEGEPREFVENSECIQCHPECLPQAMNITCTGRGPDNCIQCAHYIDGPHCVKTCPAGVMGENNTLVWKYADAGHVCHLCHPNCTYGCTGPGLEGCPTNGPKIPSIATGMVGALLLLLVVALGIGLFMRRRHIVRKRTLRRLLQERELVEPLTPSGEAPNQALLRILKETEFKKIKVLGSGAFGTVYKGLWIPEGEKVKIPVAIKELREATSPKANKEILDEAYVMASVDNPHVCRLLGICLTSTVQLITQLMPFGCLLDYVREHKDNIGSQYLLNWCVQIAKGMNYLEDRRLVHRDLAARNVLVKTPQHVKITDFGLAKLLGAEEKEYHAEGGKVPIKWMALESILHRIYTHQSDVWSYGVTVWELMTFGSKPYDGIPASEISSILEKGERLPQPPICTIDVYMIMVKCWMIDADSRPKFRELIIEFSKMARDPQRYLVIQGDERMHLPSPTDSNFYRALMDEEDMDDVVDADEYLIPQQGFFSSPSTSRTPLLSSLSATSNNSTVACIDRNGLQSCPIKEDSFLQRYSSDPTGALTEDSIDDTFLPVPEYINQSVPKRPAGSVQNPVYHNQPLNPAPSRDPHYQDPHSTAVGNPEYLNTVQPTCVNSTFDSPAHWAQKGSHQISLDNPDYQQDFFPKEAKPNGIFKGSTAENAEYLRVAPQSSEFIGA

Consider `COc1cc(OC2CCN(C)CC2)c2c(Nc3ccc(F)c(Cl)c3)ncnc2c1`, for which the results for the clearance in [1] and in series [2] were 66 mL/min/kg and 20 mL/min/kg, respectively. Besides, the inhibition in vivo at 100 mg/kg in series [3] came out at 60%. Moreover, the figures for the bioavailability in series [4] and in series [6] were 63% and 103%, respectively. Further, the fraction unbound is 0.0251 in series [5] and 0.0311 in series [10]. Also, the half-life in series [7] was 2.9 h; in series [9] it was 5.2 h. Further, the 50% inhibitory concentration (IC50) in series [8] was 21 nM. In addition, the Vd in [11] was determined as 8.2 L/kg; in series [12] it was 12.3 L/kg. `CN1CCC(Oc2cccc3ncnc(Nc4ccc(F)c(Cl)c4)c23)CC1` returned an IC50 in series [8] of 3 nM. Compound `CCCN1CCC(Oc2cc(OC)cc3ncnc(Nc4ccc(F)c(Cl)c4)c23)CC1` had an IC50 in [8] of under 2 nM.

`COc1ccc2ncnc(Nc3ccc(F)c(Cl)c3)c2c1OC1CCN(C)CC1`: the IC50 in [8] worked out at 225 nM. On the same count and under the same terms, the same measure for `CCN1CCC(Oc2cc(OC)cc3ncnc(Nc4ccc(F)c(Cl)c4)c23)CC1`: under 2 nM. In [8], `COc1cc(OC2CCN(C(C)=O)CC2)c2c(Nc3ccc(F)c(Cl)c3)ncnc2c1` had an IC50 of 873 nM. The compound `COc1cc(OC2CCNCC2)c2c(Nc3ccc(F)c(Cl)c3)ncnc2c1` had an IC50 in series [8] of 10 nM. With `CN1CCN(CCCOc2cc(OC3CCOCC3)c3c(Nc4ccc(F)c(Cl)c4)ncnc3c2)CC1`, in series [8], inhibition was half-maximal at 66 nM (IC50). Still for that read-out and setting: the same measure for `COc1cc(OC2CCOCC2)c2c(Nc3ccc(F)c(Cl)c3)ncnc2c1`: 1380 nM; for `COc1cc(OC(C)C)c2c(Nc3ccc(F)c(Cl)c3)ncnc2c1`: 8070 nM.

Take `COc1cc(OC2CCN(S(C)(=O)=O)CC2)c2c(Nc3ccc(F)c(Cl)c3)ncnc2c1`: the IC50 in series [8] was found to be 9600 nM. The same measure, in the same setting: the same measure for `COCCOc1cc(OC2CCOCC2)c2c(Nc3ccc(F)c(Cl)c3)ncnc2c1`: 671 nM.

Usually fraction unbound stands for the share of the substance not bound to proteins or other matrix. As a reminder, the half-life is how long it takes for the measured level to halve. Read a high half-life as slow decline. In general, IC50 refers to the point on the concentration scale where inhibition reaches its midpoint. A lower IC50 goes with greater potency.
